From patent US7977364B2, “Indazoles, benzisoxazoles and benzisothiazoles and their use as estrogenic agents” (Laboratoire Thermamex, priority 2004, dated 2011)
Read-outs that look alike come from different tables or passages of the source.

Key:
[1] = tested on: human endometrial adenocarcinoma Ishikawa cells; assay: Estrogenic and anti-estrogenic activities in vitro: induction of alkaline phosphatase (APase) activity; assay type: cell-based; settings: for EC50: compound alone, four days, ND = not detected, read-out: Estrogenic activity EC50 (nM) ± S.E.M; for estrogenic effect in alkaline phosphatase activity in the Ishikawa cell model: in words
Protocol: The estrogenic and anti-estrogenic potentials of new compounds were evaluated using the induction of alkaline phosphatase (APase) activity, an estrogen specific response in human endometrial adenocarcinoma Ishikawa cells (Botella J., J Steroid Biochem Molec Biol, 1995, 55: 77-84; Littlefield et al., Endocrinology, 1990, 127: 2757-2762).
Ishikawa cells were routinely grown as monolayers in Dulbecco's Modified Eagle's medium (DMEM) containing 4 mM Glutamax I and supplemented with 10% of decomplemented fetal calf serum (dFCS) and antibiotics. They were maintained in a humidified atmosphere of 5% CO2 and 95% air, at 37±0.1° C. Stocks were performed once a week to maintain continuous exponential growth.
For studies, Ishikawa cells were plated into 96-well microplates. The next day, the medium was changed to a phenol red-free DMEM containing 5% dFCS stripped of endogenous estrogens by dextran coated charcoal treatment.
At the end of the incubation period, APase activity was assayed by a method involving the hydrolysis of p-nitrophenyl phosphate to p-nitrophenol at pH 9.8 and spectrophotometric determination of the product at 405 nm.
In brief, the microplates were first rinsed twice with cold phosphate buffered solution and then placed at −80° C. for at least 15 minutes. After thawing at room temperature for 5-10 minutes, the plates were put on ice and 50 μl ice-cold solution containing 5 mM p-nitrophenyl phosphate was added to each well. The plates were warmed to room temperature to allow for the development of the enzymatic reaction (t0). After a 15 to 60 minute incubation period, the intensity of the yellow color generated by the production of p-nitrophenol was measured into each well at 405 nm using a microplate reader (Wallac, model 1420 Victor^2). […] Sigmoidal dose-response curves were plotted and EC50 (estrogenic effect) and IC50 (anti-estrogenic effect) values were calculated for each compound.

[2] = tested on: human breast cancer cell line MCF-7; assay: Proliferative activity in vitro (ATP luminescence, 6 days); assay type: cell-based; settings: for activity at 1 µM: read-out: Effect at 10^−6 M (% of control); for activity at 0.01 µM: read-out: Effect at 10^−8 M (% of control); for EC50: MCF-7, six days, read-out: Cell proliferation EC50 (nM) ± S.E.M
Protocol: The proliferative effect of the compounds of the invention was evaluated on human breast cancer cell line MCF-7 by measuring the number of viable cells after 6 days of treatment.
MCF-7 cells were routinely cultured as monolayers in Dulbecco's modified Eagle's medium (DMEM) containing 4 mM Glutamax and 4.5 g/l glucose and supplemented with 5% (v/v) decomplemented fetal calf serum (dFCS) and antibiotics.
Cells were plated at 2.10^6 cells/75 cm^2 flasks and incubated at 37° C. in a humidified atmosphere containing 5% CO2. They were passaged once weekly to maintain continuous exponential growth. Forty eight hours before the start of an experiment, near-confluent cells were changed to a phenol red free DMEM containing 5% steroid-stripped dFCS by dextran coated charcoal treatment (DCC-DMEM). On the day of the experiment, cells were harvested by brief exposure to trypsin and plated in DCC-DMEM in 96-well microplates at a density of 4.10^3 cells/well. The next day, the medium was renewed and test compounds, diluted appropriately in estrogen-free DMEM, were added and incubated for six days. […] At the end of the incubation period, cell proliferation was evaluated by quantitation of the cellular ATP content which signals the presence of metabolically active cells.
The assay, based on the ATP-dependent luciferase reaction, enables generation of a luminescent signal proportional to the amount of ATP present. As there is a linear relationship between the amount of ATP and the number of viable cells present in culture, the luminescent signal allowed to precisely evaluate cell proliferation (Crouch, S. P. M. et al. J. Immunol. Meth., 1993, 160, 81; Kangas, L. et al. Med. Biol. 1984, 62, 338; Petty, R. D. et al. J. Biolum. Chemilum. 1995, 10, 29).
In brief, the microplates were inverted to discard the culture medium and 100 μl of fresh medium was added into each well. The microplates were equilibrated at room temperature for approximately 30 minutes. 100 μl of luciferase reagent was added into each well and contents were mixed for 2 minutes to induce cell lysis. The plates were incubated at room temperature for 10 minutes to stabilize luminescence signal.
Luminescence was recorded using a microplate reader (Wallac, model 1420 Victor^2) and results were expressed as percentage of the control luminescence. Sigmoidal dose-response curves were plotted and EC50 values were calculated for each compound in order to evaluate their proliferative potency.

Prepubescent female rats = assay: Estrogenic / uterotrophic activity in vivo (uterus wet weight); parameters: species or system rat; settings: Table 4, orally 3 mg/rat/day for 3 days; for change in vivo at 3 mg: Rattus norvegicus, po, 72 h, read-out: % stimulation vs vehicle (uterus weight)
Protocol: Prepubescent female rats were orally treated at 3 mg/rat/day for 3 days. On the day following the last treatment, uteri were removed and wet weights were recorded.
The results are expressed as % of stimulation of uterus weight in comparison with vehicles. […]
Prepubescent female rats were orally treated with 0.3; 1; 3 or 10 mg/rat/day for 3 days. On the day following the last treatment, uteri were removed and wet weights were recorded.

[3] = target: T1, purified full-length recombinant human ERα (Homo sapiens, UniProt P03372); assay: Estrogen receptor α competitive radiometric binding assay ([3H]-E2); settings: for RBA (%) Mean ± S.E.M, ER α: ratio of IC50s of E2 and competitor, E2 set at 100%
T1 sequence (P03372 1-595): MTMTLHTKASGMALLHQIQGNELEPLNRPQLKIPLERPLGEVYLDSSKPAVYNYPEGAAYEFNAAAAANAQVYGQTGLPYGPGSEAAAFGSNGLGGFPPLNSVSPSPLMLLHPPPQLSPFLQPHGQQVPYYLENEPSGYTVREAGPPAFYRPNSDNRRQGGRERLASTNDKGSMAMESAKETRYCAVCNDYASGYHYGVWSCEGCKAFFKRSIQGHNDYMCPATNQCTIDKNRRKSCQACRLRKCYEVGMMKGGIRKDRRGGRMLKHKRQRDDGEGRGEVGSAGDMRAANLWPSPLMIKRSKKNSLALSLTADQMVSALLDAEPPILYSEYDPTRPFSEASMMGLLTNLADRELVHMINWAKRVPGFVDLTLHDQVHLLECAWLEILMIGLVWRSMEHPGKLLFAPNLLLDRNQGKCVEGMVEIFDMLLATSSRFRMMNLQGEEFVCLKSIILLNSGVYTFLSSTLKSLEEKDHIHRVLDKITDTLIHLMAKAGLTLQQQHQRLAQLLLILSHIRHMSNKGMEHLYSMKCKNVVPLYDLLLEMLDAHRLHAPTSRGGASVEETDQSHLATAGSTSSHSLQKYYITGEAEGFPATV
Protocol: (§1) Relative binding affinities (RBA) were determined by competitive radiometric binding assays, using purified full-length recombinant human ERα and ERβ (PanVera, Madison, Wis.). […] After shaking for a few seconds and centrifugation at 1500 g and 4° C. for 10 minutes, 150 μl/well of Optiphase ‘Super Mix’ scintillation liquid was mixed with 50 μl of supernatant of each sample and the radioactivity was measured in a MicroBeta counter (Wallac, Turku, Finland). Data were evaluated by a sigmoidal dose-response curve (Prism, GraphPad Software Inc.) to estimate the concentration of competitor at half-maximal specific binding (IC50). […] The selectivity for ERα and ERβ was obtained from the ratio R of the IC50 for ERα to the IC50 for ERβ for each test compound.

[4] = target: purified full-length recombinant human ERβ (Homo sapiens, UniProt Q92731); assay: Estrogen receptor β competitive radiometric binding assay ([3H]-E2); settings: for RBA (%) Mean ± S.E.M, ER β: ratio of IC50s of E2 and competitor, E2 set at 100%; for R (IC50s) αβ: ratio of the IC50 for ERα to the IC50 for ERβ; for selectivity for the human recombinant estrogen receptor β: in words
Protocol: as §1

[5] = Homo sapiens, MCF7, 144 h, MCF-7, 10^−6 M, six days
[6] = Homo sapiens, MCF7, 144 h, MCF-7, 10^−8 M, six days

purified full-length recombinant human ERβ, sequence (Q92731 whole entry): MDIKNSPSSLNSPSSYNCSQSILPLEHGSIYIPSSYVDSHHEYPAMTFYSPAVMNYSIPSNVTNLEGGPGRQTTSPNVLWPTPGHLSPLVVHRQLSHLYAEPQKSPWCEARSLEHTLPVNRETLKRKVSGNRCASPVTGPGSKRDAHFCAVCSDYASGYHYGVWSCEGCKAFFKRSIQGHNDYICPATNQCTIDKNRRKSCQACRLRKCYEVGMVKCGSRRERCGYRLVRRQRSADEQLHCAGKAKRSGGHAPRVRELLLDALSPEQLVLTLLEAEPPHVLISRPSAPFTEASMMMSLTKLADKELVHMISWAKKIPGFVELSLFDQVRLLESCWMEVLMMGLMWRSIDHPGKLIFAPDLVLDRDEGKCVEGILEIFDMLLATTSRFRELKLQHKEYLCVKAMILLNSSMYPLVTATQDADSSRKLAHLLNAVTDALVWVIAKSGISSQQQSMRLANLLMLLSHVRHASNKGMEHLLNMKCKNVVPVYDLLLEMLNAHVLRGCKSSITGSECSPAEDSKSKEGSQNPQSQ

Molecule | EC50 ([1]; Homo sapiens, Ishikawa, 96 h) [nM] | activity at 1 µM [2, 5] [%] | activity at 0.01 µM [2, 6] [%] | EC50 ([2]; Homo sapiens, MCF7, 144 h) [nM] | change in vivo at 3 mg (Prepubescent female rats) [%] | melting point [°C] | IC50 [3] [nM] | RBA (%) Mean ± S.E.M, ER α [3] [%] | IC50 [4] [nM] | RBA (%) Mean ± S.E.M, ER β [4] [%] | R (IC50s) αβ [4] | EC50 [1] [nM] | estrogenic effect in alkaline phosphatase activity in the Ishikawa cell model [1] | Effect at 10^−6 M (% of control) ([2]; MCF-7, 10^−6 M, six days) | Effect at 10^−8 M (% of control) ([2]; MCF-7, 10^−8 M, six days) | EC50 [2] [nM] | % stimulation vs vehicle (uterus weight) (Prepubescent female rats) [%] | IC50 ([3]; read-out: IC50 (nM) Mean ± S.E.M, ER α, 2 nM [3H]-E2, 4° C., 18-20 hours) [nM] | selectivity for the human recombinant estrogen receptor β [4] | IC50 ([4]; read-out: IC50 (nM) Mean ± S.E.M, ER β, 2 nM [3H]-E2, 4° C., 18-20 hours) [nM]
NS(=O)(=O)n1nc(C2CCCCC2)c2ccc(O)cc21 [Ex 40, 3-cyclohexyl-6-hydroxy-1H-indazole-1-sulfonamide] | 132 ± 4.7 | 152 | 107 | 11.5 ± 2.8 | 41 | 162 | 1480 ± 1180 | 0.1 ± 0.02 | 188 ± 34 | 1.0 ± 0.2 | 7.9 |  |  |  |  |  |  |  |  | 
Oc1ccc2c(C3CCCCCC3)noc2c1 [Ex 65, 3-cycloheptyl-1,2-benzisoxazol-6-ol] | 51.7 ± 6.2 | 260 | 123 | 27.6 ± 2 | 84 | 156 | 75.3 ± 5.4 | 2.5 ± 0.6 | 20.2 ± 4.2 | 13.2 ± 3.1 | 3.7 |  |  |  |  |  |  |  |  | 
1-(aminosulfonyl)-3-cyclohexyl-1H-indazol-6-yl-sulfamate [Ex 35] |  |  |  |  |  |  |  | 0.1 ± 0.02 |  | 0.9 ± 0.1 | 10.8 | 374 ± 43 | weak estrogenic effect | 162.6 % of control | 94.4 % of control | 58.2 ± 15 | 38 | 2690 ± 593 | marked selectivity | 248 ± 48.7
N#CC(Cc1ccc(O)c(O)c1)c1noc2cc(O)ccc12 (stereo not drawn) [Ex 86, 2-(6-hydroxy-1,2-benzisoxazol-3-yl)-3-(3,4-dihydroxyphenyl) propanenitrile] |  | 139 | 85.6 | 466 ± 34 | 25 | 154 | 1890 ± 365 | 0.2 ± 0.03 | 135 ± 31 | 2.4 ± 0.4 | 14.1 |  | weak estrogenic effect |  |  |  |  |  | marked selectivity | 
Oc1ccc2c(C3CCCCC3)nsc2c1 [Ex 93, 3-cyclohexyl-1,2-benzisothiazol-6-ol] | 124 ± 8.9 | 156 | 116 | 16.1 ± 2.6 | 88 | 190 | 88.6 ± 11.7 | 1.3 ± 0.2 | 37.8 ± 5.4 | 5.1 ± 0.8 | 2.3 |  | weak estrogenic effect |  |  |  |  |  | marked selectivity | 
N#CC(Cc1ccc(O)cc1)c1noc2cc(O)ccc12 (stereo not drawn) [Ex 80, 2-(6-hydroxy-1,2-benzisoxazol-3-yl)-3-(4-hydroxyphenyl) propanenitrile] | 147 ± 39.9 | 147 | 110 | 45.2 ± 25.6 | 70 |  | 67.5 ± 5 | 3.4 ± 0.4 | 7.5 ± 0.7 | 43.0 ± 7.8 | 9.0 |  |  |  |  |  |  |  |  | 
Cl.Oc1ccc2c(C34CC5CC(CC(C5)C3)C4)n[nH]c2c1 [Ex 31, 3-(1-adamantyl)-1H-indazol-6-ol, hydrochloride] | 30.8 ± 0.5 | 146 | 139 | 3.7 ± 0.7 | 468 |  | 119 ± 45.2 | 3.1 ± 0.8 | 36.2 ± 18.7 | 17.7 ± 5.1 | 3.3 |  | weak estrogenic effect |  |  |  |  |  | marked selectivity | 
